Assays:
[1] = system: collagen I; test: Western blot of TGF-β1-induced collagen I protein in vitro; assay type: cell-based, rat; conditions: NRK 52E and NRK 49F cells, GQ-5 0.1-2.5 μM pre-treated 1 h, TGF-β1 10 ng/ml 48 h
Protocol: (§1) NRK52E and NRK49F cells were cultured in DMEM-Ham's medium supplemented with 10% fetal bovine serum. The cells reached at approximately 50% confluence were used for in vitro experiments. Cells were serum-starved for 12 h, and randomized into 6 groups: (1) Controls; (2) GQ-5 only; (3) TGF-β1 only; (4) TGF-β1+GQ-5 0.1 μM; (5) TGF-β1+GQ-5 0.5 μM; (6) TGF-β1+GQ-5 2.5 μM
(2) GQ-5 only: pre-treated with GQ-5 (2.5 μM) for 1 h, followed with DMEM for 48 h
(3) TGF-β1 only: pre-treated with DMSO for 1 h, followed with TGF-β1 (10 ng/ml) for 48 h
(4) TGF-β1+GQ-5 0.1 μM: pre-treated with GQ-5 (0.1 μM) for 1 h, followed with TGF-β1 (10 ng/ml) for 48 h
(5) TGF-β1+GQ-5 0.5 μM: pre-treated with GQ-5 (0.5 μM) for 1 h, followed with TGF-β1 (10 ng/ml) for 48 h
(6) TGF-β1+GQ-5 2.5 μM: pre-treated with GQ-5 (2.5 μM) for 1 h, followed with TGF-β1 (10 ng/ml) for 48 h
GQ-5 was dissolved in DMSO. Cells were treated as described. Cells lysates were immunebloted with antibodies against α-SMA, collagen I and fibronectin.

[2] = system: Smad2 phosphorylation; test: Western blot of TGF-β1-induced Smad2 phosphorylation in vitro; assay type: cell-based, rat
Protocol: as §1, with “2.5 μM.” for “2.5 μM”
(2) GQ-5 only: pre-treated with GQ-5 (2.5 μM) for 1 h, followed with DMEM for 1 h
(3) TGF-β1 only: pre-treated with DMSO (0.1%) for 1 h, followed with TGF-β1 (10 ng/ml) for 1 h
(4) TGF-β1+GQ-5 0.1 μM: pre-treated with GQ-5 (0.1 μM) for 1 h, followed with TGF-β1 (10 ng/ml) for 1 h
(5) TGF-β1+GQ-5 0.5 μM: pre-treated with GQ-5 (0.5 μM) for 1 h, followed with TGF-β1 (10 ng/ml) for 1 h
(6) TGF-β1+GQ-5 2.5 μM: pre-treated with GQ-5 (2.5 μM) for 1 h, followed with TGF-β1 (10 ng/ml) for 1 h.
GQ-5 was dissolved in DMSO. Cells were treated as described. Cell lysates were immunoblotted with antibodies against phospho-Smad3, Smad3, phospho-Smad2, Smad2.
NRK52E cells were cultured in DMEM-Ham's medium supplemented with 10% fetal bovine serum. The cells reached at approximately 50% confluence were used for in vitro experiments. Cells were serum-starved for 12 h, and randomized into 8 groups: (1) Controls; (2) GQ-5 only; (3) TGF-β1 0.5 h; (4) TGF-β1 0.5 h+GQ-5; (5) TGF-β1 1.0 h; (6) TGF-β1 1.0 h+GQ-5; (7) TGF-β1 3.0 h; (8) TGF-β1 3.0 h+GQ-5; […]

[3] = system: Smad2 phosphorylation; test: Smad2 phosphorylation in kidney tissue of UUO rats (immunohistochemistry, Western blot); assay type: in vivo, rat; conditions: GQ-5 40 mg/kg daily i.p. right after or 7 days after UUO, sacrificed day 14
Protocol: (§2) Male Sprague-Dawley rats with body weight 200 to 250 g were randomized into 4 groups (n=6 in each group): (1) sham operated rats; (2) UUO rats; (3) UUO+GQ-5 d1 rats; (4) UUO+GQ-5 d7 rats.
(§3) GQ-5 was dissolved in 5% propylene glycol.
(§4) (3) UUO+GQ-5 d1 rats: daily intraperitoneal injection of GQ-5 (40 mg/kg body weight) right after UUO;
(§5) (4) UUO+GQ-5 d7 rats: daily intraperitoneal injection of GQ-5 (40 mg/kg body weight) 7 days after UUO.
(§6) UUO was performed using an established protocol as described. GQ-5 was dissolved in 5% propylene glycol. Rats were administrated with GQ-5 as described before. All the rats were sacrificed 14 days after UUO. Immunohistochemical staining and Western blot analyses were performed to examine the Smad3 and Smad2 phosphorylation in kidney tissue.

[4] = system: Smad3; test: Immunofluorescence staining of TGF-β1-induced Smad3 nuclear translocation; assay type: cell-based, rat; conditions: NRK52E cells, GQ-5 2.5 μM pre-treated 1 h, TGF-β1 10 ng/ml 2 h
Protocol: NRK52E cells were cultured in DMEM-Ham's medium supplemented with 10% fetal bovine serum. The cells reached at approximately 50% confluence were used for in vitro experiments. Cells were serum-starved for 12 h, and randomized into 3 groups: (1) Controls; (2) TGF-β1 only; (3) TGF-β1+GQ-5.
(2) TGF-β1 only: pre-treated with DMSO for 1 h, followed with TGF-β1 (10 ng/ml) for 2 h
(3) TGF-β1+GQ-5: pre-treated with GQ-5 (2.5 μM) for 1 h, followed with TGF-β1 (10 ng/ml) for 2 h
GQ-5 was dissolved in DMSO. Cells were treated as described Immunofluorescence staining was performed to examine the nuclear translocation of Smad2, Smad3, and Smad4.

[5] = system: Smad4; test: Western blot of Smad4 expression in UUO kidneys; assay type: in vivo, rat; conditions: UUO rats, GQ-5 40 mg/kg daily i.p. right after UUO, sacrificed day 14
Protocol: Male Sprague-Dawley rats with body weight 200 to 250 g were randomized into 3 groups (n=6 in each group): (1) sham operated rats; (2) UUO rats; (3) UUO+GQ-5 rats.
as §3
(3) UUO+GQ-5 rats: daily intraperitoneal injection of GQ-5 (40 mg/kg body weight) right after UUO;
as §6, with “UUO.” for “UUO. Immunohistochemical staining and”, “Smad4, Smad7 expression” for “Smad3”, “p38, PI3K, ERK phosphorylation.” for “Smad2 phosphorylation in kidney tissue.”

[6] = system: Smad3 phosphorylation; test: Smad3 phosphorylation in kidney tissue of UUO rats (immunohistochemistry, Western blot); assay type: in vivo, rat; conditions: GQ-5 40 mg/kg daily i.p. right after or 7 days after UUO, sacrificed day 14
Protocol: as §2, §3, §4, §5, §6

## CCCCCC/C=C\CCCCCCCc1cccc(O)c1O [GQ-5, 3-[(Z)-pentadec-8-enyl]catechol]
[1]
  TGF-β1-induced protein expression of collagen I: significantly inhibited
[2]; NRK52E and NRK49F cells, GQ-5 0.1, 0.5, 2.5 μM pre-treated 1 h, TGF-β1 10 ng/ml 1 h
  TGF-β1-induced Smad2 phosphorylation: did not affect
[2]; NRK52E cells, GQ-5 2.5 μM pre-treated 1 h, TGF-β1 10 ng/ml 0.5, 1.0, 3.0 h
  TGF-β1-induced Smad2 phosphorylation, time course: did not affect
[3]
  Smad2 phosphorylation in renal tissue: not Smad2
[4]
  TGF-β1-induced Smad3 nuclear translocation: significantly reduced
[5]
  expression of Smad4: did not affect
[6]
  Smad3 phosphorylation in renal tissue: significantly inhibited
